In one series the test system is Hep2 cells. The conditions noted are these: uninfected cells treated 7 days.
For series [1] the following is noted: human, in vivo; cited from earlier work.
The next series deals with Hepatitis C virus (HCV). The conditions noted are these: prolonged therapy; cited from earlier work.

Regarding `NC(=O)c1ncn([C@@H]2O[C@H](CO)[C@@H](O)[C@H]2O)n1` [Ribavirin], the “toxicity in Hep2 cells” value in the series with Hep2 cells is listed as “significantly toxic”.

With `Nc1nc(O)c2ncn(COC(CO)CO)c2n1` [ganciclovir], the “neutropenia and thrombocytopenia, share of patients treated” value in series [1] is 40%.

For the compound `O=c1[nH]c(=O)n([C@H]2C[C@H](O)[C@@H](CO)O2)cc1I` [idoxuridine], the “allergic reactions, share of patients treated” value in series [1] is 35%.

Turning to interferon alpha, in the series on Hepatitis C virus (HCV), the “share of patients in whom therapy is effective” value is “about 40% of patients”.

These data come from patent US20040170959A1, “Methods for identifying antiviral oligonucleotides” (priority 2002, published 2004).
